US10266544B2, “Aryl substituted aminomethyl spectinomycin analogs as antibacterial agents” (ST. JUDE CHILDREN'S RESEARCH HOSPITAL, INC., priority 2013, dated 2019)
Counter-ions that a name gives are not always drawn.

Tested on: live vaccine strain (LVS) of Francisella tularensis
Test: microbe, parasite or virus in culture
Format: cell-based
Settings: introduction of the methyl-linked phenyl ring

CN[C@@H]1[C@H](O)[C@H](NC)[C@H]2O[C@]3(O)[C@H](O[C@@H]2[C@H]1O)O[C@H](C)C[C@@]3(O)CNCc1ccccc1 [compound 1, 3′-(R)-3′-(benzylaminomethyl)dihydrospectinomycin Trihydrochloride] was tested, and the “activity against Francisella tularensis LVS” value was “well tolerated”.
